Measurements taken from patent publication US20240208992A1, “MACROCYCLES AS CFTR MODULATORS” (Idorsia Pharmaceuticals Ltd, priority 2021, published 2024).

Biological target: human F508del-CFTR (Homo sapiens, UniProt P13569, DEL508-508)
Test: F508del-CFTR cell surface expression (corrector activity), DiscoveRx ß-galactosidase complementation chemiluminescence assay in recombinant U2OS cell line;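 also: U2OS cells co-expressing ProLink-tagged F508del-CFTR and a membrane-anchored enzyme acceptor, where more surface CFTR restores β-galactosidase activity measured by chemiluminescence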
Details: for EC50: EC50, F508del-CFTR cell surface expression, U2OS cells, 16h compound incubation, geomean values; for Emax: U2OS, in relation to Emax of corrector lumacaftor (=100%), arithmetic mean values

Sequence of human F508del-CFTR (P13569 with tags, fused parts or gaps DEL508-508): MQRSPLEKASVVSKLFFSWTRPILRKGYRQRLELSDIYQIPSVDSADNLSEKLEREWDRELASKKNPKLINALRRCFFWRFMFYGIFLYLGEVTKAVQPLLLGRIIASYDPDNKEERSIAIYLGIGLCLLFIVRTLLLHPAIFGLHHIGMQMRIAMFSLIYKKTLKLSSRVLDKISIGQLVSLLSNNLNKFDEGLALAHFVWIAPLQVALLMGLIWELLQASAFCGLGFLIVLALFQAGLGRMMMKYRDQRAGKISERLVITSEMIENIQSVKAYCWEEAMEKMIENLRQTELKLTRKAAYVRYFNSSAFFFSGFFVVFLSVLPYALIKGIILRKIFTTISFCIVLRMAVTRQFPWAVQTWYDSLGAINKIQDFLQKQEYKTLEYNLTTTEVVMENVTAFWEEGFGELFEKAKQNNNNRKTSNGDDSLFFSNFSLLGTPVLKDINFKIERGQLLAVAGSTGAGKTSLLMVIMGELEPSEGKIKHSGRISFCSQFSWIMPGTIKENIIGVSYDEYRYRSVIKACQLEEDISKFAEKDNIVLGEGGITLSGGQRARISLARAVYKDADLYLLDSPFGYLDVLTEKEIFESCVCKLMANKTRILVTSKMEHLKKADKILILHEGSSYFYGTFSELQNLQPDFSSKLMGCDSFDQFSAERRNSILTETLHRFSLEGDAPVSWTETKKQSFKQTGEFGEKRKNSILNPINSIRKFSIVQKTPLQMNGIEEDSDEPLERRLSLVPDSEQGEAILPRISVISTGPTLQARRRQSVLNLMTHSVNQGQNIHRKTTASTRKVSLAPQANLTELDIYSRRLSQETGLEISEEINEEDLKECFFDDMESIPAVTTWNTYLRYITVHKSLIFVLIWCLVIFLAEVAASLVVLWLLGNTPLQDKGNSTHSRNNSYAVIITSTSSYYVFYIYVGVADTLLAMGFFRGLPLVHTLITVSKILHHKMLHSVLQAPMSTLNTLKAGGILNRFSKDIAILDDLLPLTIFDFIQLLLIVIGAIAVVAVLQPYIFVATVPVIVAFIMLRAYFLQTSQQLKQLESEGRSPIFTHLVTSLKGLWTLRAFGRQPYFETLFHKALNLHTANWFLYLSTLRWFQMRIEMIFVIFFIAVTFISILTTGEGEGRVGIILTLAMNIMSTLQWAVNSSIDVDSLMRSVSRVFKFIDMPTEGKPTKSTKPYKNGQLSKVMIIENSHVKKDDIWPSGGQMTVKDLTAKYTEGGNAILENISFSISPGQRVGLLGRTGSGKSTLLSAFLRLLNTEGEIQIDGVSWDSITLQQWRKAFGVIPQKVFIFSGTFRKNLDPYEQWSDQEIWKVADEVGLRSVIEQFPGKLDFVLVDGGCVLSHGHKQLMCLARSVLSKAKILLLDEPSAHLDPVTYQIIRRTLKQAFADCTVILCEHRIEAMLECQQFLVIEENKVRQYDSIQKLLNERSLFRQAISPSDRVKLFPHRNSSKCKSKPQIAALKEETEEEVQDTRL

## COc1cc(CCNC(=O)[C@@H]2CC(=O)N(C)[C@@H](CC(C)C)C(=O)N(C)C3(CC3)C(=O)N[C@H](Cc3ccccc3)COc3cnc4ccccc4c3C(=O)N2)on1 [Example 686, (3′S,7′S,13′R)-13′-benzyl-7′-isobutyl-N-(2-(3-methoxyisoxazol-5-yl)ethyl)-6′,9′-dimethyl-1′,5′,8′,11′-tetraoxo-2′,3′,4′,5′,6′,7′,8′,9′,11′,12′,13′,14′-dodecahydro-1′H-spiro[cyclopropane-1,10′-[1]oxa[4,7,10,14]tetraazacycloheptadecino[17,16-c]quinoline]-3′-carboxamide]
  EC50: 436 nM
  Emax: 332%

## CC(C)C[C@H]1C(=O)N(C)CC(=O)N[C@H](Cc2ccccc2)COc2ccccc2C(=O)N[C@H](C(=O)NCCc2ccc3c(c2)OCO3)CC(=O)N1C [Example 687, (3R,9S,13S)-N-(2-(benzo[d][1,3]dioxol-5-yl)ethyl)-3-benzyl-9-isobutyl-7,10-dimethyl-5,8,11,15-tetraoxo-2,3,4,5,6,7,8,9,10,11,12,13,14,15-tetradecahydrobenzo[p][1]oxa[4,7,10,14]tetraazacycloheptadecine-13-carboxamide]
  EC50: 794 nM
  Emax: 107%

## CC(C)C[C@H]1C(=O)N(C)CC(=O)N[C@H](Cc2ccccc2)COc2ccccc2C(=O)N[C@H](C(=O)NCCc2ccc3c(c2)OCCO3)CC(=O)N1C [Example 688, (3R,9S,13S)-3-benzyl-N-(2-(2,3-dihydrobenzo[b][1,4]dioxin-6-yl)ethyl)-9-isobutyl-7,10-dimethyl-5,8,11,15-tetraoxo-2,3,4,5,6,7,8,9,10,11,12,13,14,15-tetradecahydrobenzo[p][1]oxa[4,7,10,14]tetraazacycloheptadecine-13-carboxamide]
  EC50: 458 nM
  Emax: 104%

## CC(C)C[C@H]1C(=O)N(C)C2(CCC2)C(=O)N[C@H](Cc2ccccc2)COc2cnc3ccc(F)cc3c2C(=O)N[C@H](C(=O)NCCc2cc(C3CC3)no2)CC(=O)N1C [Example 689, (3'S,7'S,13′R)-13′-Benzyl-N-(2-(3-cyclopropylisoxazol-5-yl)ethyl)-20′-fluoro-7′-isobutyl-6′,9′-dimethyl-1′,5′,8′,11′-tetraoxo-2′,3′,4′,5′,6′,7′,8′,9′,11′,12′,13′,14′-dodecahydro-1′H-spiro[cyclobutane-1,10′-[1]oxa[4,7,10,14]tetraazacycloheptadecino[17,16-c]quinoline]-3′-carboxamide]
  EC50: 245 nM
  Emax: 390%

## Cc1cc(CCNC(=O)[C@@H]2CC(=O)N(C)[C@@H](CC(C)C)C(=O)N(C)C3(CCC3)C(=O)N[C@H](Cc3ccccc3)COc3cnc4ccc(F)cc4c3C(=O)N2)on1 [Example 690, (3′S,7′S,13′R)-13′-benzyl-20′-fluoro-7′-isobutyl-6′,9′-dimethyl-N-(2-(3-methylisoxazol-5-yl)ethyl)-1′,5′,8′,11′-tetraoxo-2′,3′,4′,5′,6′,7′,8′,9′,11′,12′,13′,14′-dodecahydro-1′H-spiro[cyclobutane-1,10′-[1]oxa[4,7,10,14]tetraazacycloheptadecino[17,16-c]quinoline]-3′-carboxamide]
  EC50: 478 nM
  Emax: 401%

## CC(C)C[C@H]1C(=O)N(C)C2(CCC2)C(=O)N[C@H](Cc2ccccc2)COc2cnc3ccc(F)cc3c2C(=O)N[C@H](C(=O)NCCc2noc(C3CC3)n2)CC(=O)N1C [Example 691, (3′S,7′S,13′R)-13′-benzyl-N-(2-(5-cyclopropyl-1,2,4-oxadiazol-3-yl)ethyl)-20′-fluoro-7′-isobutyl-6′,9′-dimethyl-1′,5′,8′,11′-tetraoxo-2′,3′,4′,5′,6′,7′,8′,9′,11′,12′,13′,14′-dodecahydro-1′H-spiro[cyclobutane-1,10′-[1]oxa[4,7,10,14]tetraazacycloheptadecino[17,16-c]quinoline]-3′-carboxamide]
  EC50: 201 nM
  Emax: 364%

## CC(C)C[C@H]1C(=O)N(C)C2(CCC2)C(=O)N[C@H](Cc2ccccc2)COc2cnc3ccc(F)cc3c2C(=O)N[C@H](C(=O)NCCc2nc(C3CC3)no2)CC(=O)N1C [Example 692, (3′S,7′S,13′R)-13′-benzyl-N-(2-(3-cyclopropyl-1,2,4-oxadiazol-5-yl)ethyl)-20′-fluoro-7′-isobutyl-6′,9′-dimethyl-1′,5′,8′,11′-tetraoxo-2′,3′,4′,5′,6′,7′,8′,9′,11′,12′,13′,14′-dodecahydro-1′H-spiro[cyclobutane-1,10′-[1]oxa[4,7,10,14]tetraazacycloheptadecino[17,16-c]quinoline]-3′-carboxamide]
  EC50: 104 nM
  Emax: 301%

## CC(C)C[C@H]1C(=O)N(C)[C@H](CC2CCCC2)C(=O)N[C@H](Cc2ccccc2)COc2cnc3ccc(F)cc3c2C(=O)N[C@H](C(=O)NCCc2noc(C3CC3)n2)CC(=O)N1C [Example 693, (3S,7S,10R,13R)-13-benzyl-10-(cyclopentylmethyl)-N-(2-(5-cyclopropyl-1,2,4-oxadiazol-3-yl)ethyl)-20-fluoro-7-isobutyl-6,9-dimethyl-1,5,8,11-tetraoxo-1,2,3,4,5,6,7,8,9,10,11,12,13,14-tetradecahydro-[1]oxa[4,7,10,14]tetraazacycloheptadecino[17,16-c]quinoline-3-carboxamide]
  EC50: 40 nM
  Emax: 401%

## CC(C)C[C@H]1C(=O)N(C)[C@@H](CC2CCCC2)C(=O)N[C@H](Cc2ccccc2)COc2cnc3ccc(F)cc3c2C(=O)N[C@H](C(=O)NCCc2noc(C3CC3)n2)CC(=O)N1C [Example 694, (3S,7S,10S,13R)-13-benzyl-10-(cyclopentylmethyl)-N-(2-(5-cyclopropyl-1,2,4-oxadiazol-3-yl)ethyl)-20-fluoro-7-isobutyl-6,9-dimethyl-1,5,8,11-tetraoxo-1,2,3,4,5,6,7,8,9,10,11,12,13,14-tetradecahydro-[1]oxa[4,7,10,14]tetraazacycloheptadecino[17,16-c]quinoline-3-carboxamide]
  EC50: 241 nM
  Emax: 213%

## Cc1cc(CCNC(=O)[C@@H]2CC(=O)N(C)[C@@H](CC(C)C)C(=O)N(C)[C@@H](Cc3cccc4ccccc34)C(=O)N[C@H](Cc3ccccc3)COc3cnc4ccccc4c3C(=O)N2)on1 [Example 695, (3S,7S,10S,13R)-13-benzyl-7-isobutyl-6,9-dimethyl-N-(2-(3-methylisoxazol-5-yl)ethyl)-10-(naphthalen-1-ylmethyl)-1,5,8,11-tetraoxo-1,2,3,4,5,6,7,8,9,10,11,12,13,14-tetradecahydro-[1]oxa[4,7,10,14]tetraazacycloheptadecino[17,16-c]quinoline-3-carboxamide]
  EC50: 201 nM
  Emax: 237%

## CC(C)C[C@H]1C(=O)N(C)[C@H](CC2CCCCC2)C(=O)N[C@H](Cc2ccccc2)COc2cnc3ccc(F)cc3c2C(=O)N[C@H](C(=O)NCCc2nc(C3CC3)no2)CC(=O)N1C [Example 696, (3S,7S,10R,13R)-13-benzyl-10-(cyclohexylmethyl)-N-(2-(3-cyclopropyl-1,2,4-oxadiazol-5-yl)ethyl)-20-fluoro-7-isobutyl-6,9-dimethyl-1,5,8,11-tetraoxo-1,2,3,4,5,6,7,8,9,10,11,12,13,14-tetradecahydro-[1]oxa[4,7,10,14]tetraazacycloheptadecino[17,16-c]quinoline-3-carboxamide]
  EC50: 14 nM
  Emax: 252%

## CC(C)C[C@H]1C(=O)N(C)[C@H](CC2CCCCC2)C(=O)N[C@H](Cc2ccccc2)COc2cnc3ccc(F)cc3c2C(=O)N[C@H](C(=O)NCCc2cc(C3CC3)no2)CC(=O)N1C [Example 697, (3S,7S,10R,13R)-13-benzyl-10-(cyclohexylmethyl)-N-(2-(3-cyclopropylisoxazol-5-yl)ethyl)-20-fluoro-7-isobutyl-6,9-dimethyl-1,5,8,11-tetraoxo-1,2,3,4,5,6,7,8,9,10,11,12,13,14-tetradecahydro-[1]oxa[4,7,10,14]tetraazacycloheptadecino[17,16-c]quinoline-3-carboxamide]
  EC50: 27 nM
  Emax: 306%

## Cc1cc(CCNC(=O)[C@@H]2CC(=O)N(C)[C@@H](CC(C)C)C(=O)N(C)[C@H](Cc3cccc4ccccc34)C(=O)N[C@H](Cc3ccccc3)COc3cnc4ccccc4c3C(=O)N2)on1 [Example 698, (3S,7S,10R,13R)-13-benzyl-7-isobutyl-6,9-dimethyl-N-(2-(3-methylisoxazol-5-yl)ethyl)-10-(naphthalen-1-ylmethyl)-1,5,8,11-tetraoxo-1,2,3,4,5,6,7,8,9,10,11,12,13,14-tetradecahydro-[1]oxa[4,7,10,14]tetraazacycloheptadecino[17,16-c]quinoline-3-carboxamide]
  EC50: 199 nM
  Emax: 313%

## Cc1cc(CCNC(=O)[C@@H]2CC(=O)N(C)[C@@H](CC(C)C)C(=O)N(C)[C@H](CC(F)F)C(=O)N[C@H](Cc3ccccc3)COc3cnc4ccccc4c3C(=O)N2)on1 [Example 699, (3S,7S,10R,13R)-13-benzyl-10-(2,2-difluoroethyl)-7-isobutyl-6,9-dimethyl-N-(2-(3-methylisoxazol-5-yl)ethyl)-1,5,8,11-tetraoxo-1,2,3,4,5,6,7,8,9,10,11,12,13,14-tetradecahydro-[1]oxa[4,7,10,14]tetraazacycloheptadecino[17,16-c]quinoline-3-carboxamide]
  EC50: 299 nM
  Emax: 338%

## CC(C)C[C@H]1C(=O)N(CC2COc3ccccc3C2)CC(=O)N[C@H](Cc2ccccc2)COc2ccc3ccccc3c2C(=O)N[C@H](C(=O)NCCc2ccc3c(c2)OCO3)CC(=O)N1C (stereo partly drawn) [Example 700, (3S,7S,13R)—N-(2-(Benzo[d][1,3]dioxol-5-yl)ethyl)-13-benzyl-9-(((S)-chroman-3-yl)methyl)-7-isobutyl-6-methyl-1,5,8,11-tetraoxo-1,2,3,4,5,6,7,8,9,10,11,12,13,14-tetradecahydronaphtho[1,2-p][1]oxa[4,7,10,14]tetraazacycloheptadecine-3-carboxamide]
  EC50: 188 nM
  Emax: 186%
